Reference: ChEMBL document CHEMBL4364288, “Discovery of carbazole derivatives as novel allosteric MEK inhibitors by pharmacophore modeling and virtual screening” (Eur J Med Chem, 2019)

Legend:
HEK293 = assay: cells; type: ADME, cell-based; conditions: Homo sapiens, HEK293, 72 h
Homo sapiens [1] = organism: Homo sapiens; conditions: at 20 µM
Description: Inhibition of GST-tagged MEK1/ERK2 (unknown origin) cascading pathway assessed as reduction in ERK2 phosphorylation at 20 uM incubated for 2 hrs by HTRF assay relative to control

A-375 = assay: cells; type: functional, cell-based; conditions: Homo sapiens, A-375, 72 h
Description: Antiproliferative activity against human A375 cells assessed as cell viability incubated for 72 hrs by cell titer-glo luminescent cell viability assay (Rvb = > 100 uM)

HL-60 = assay: cells; type: functional, cell-based; conditions: Homo sapiens, HL-60, 72 h
A549 = assay: cells; type: functional, cell-based; conditions: Homo sapiens, A549, 72 h
Sf21 [2] = conditions: Homo sapiens, at 20 µM
Description: Inhibition of recombinant N-terminal GST-tagged human BRAF (433-726 residues) expressed in baculovirus infected sf21 insect cells/recombinant human full length N-terminal GST-tagged MEK1 expressed in Escherichia coli cascading pathway assessed as reduction in MEK1 phosphorylation at 20 uM incubated for 2 hrs by HTRF assay relative to control

Sf21 [3] = conditions: Homo sapiens, at 2 µM
Description: Inhibition of recombinant N-terminal GST-tagged human BRAF (433-726 residues) expressed in baculovirus infected sf21 insect cells/recombinant human full length N-terminal GST-tagged MEK1 expressed in Escherichia coli cascading pathway assessed as reduction in MEK1 phosphorylation at 2 uM incubated for 2 hrs by HTRF assay relative to control

Homo sapiens [4] = organism: Homo sapiens; conditions: at 2 µM
Description: Inhibition of GST-tagged MEK1/ERK2 (unknown origin) cascading pathway assessed as reduction in ERK2 phosphorylation at 2 uM incubated for 2 hrs by HTRF assay relative to control

[5] = target: Dual specificity mitogen-activated protein kinase kinase 1 (Homo sapiens) (UniProt Q02750); assay: Inhibition of recombinant full length GST-tagged human MEK1 expressed in baculovirus infected sf9 insect cells at 2 uM measured after 30 to 90 mins by HTRF based Lanthascreen Eu kinase binding assay relative to AZD6244
Sequence of Dual specificity mitogen-activated protein kinase kinase 1 (Homo sapiens) (Q02750 whole entry): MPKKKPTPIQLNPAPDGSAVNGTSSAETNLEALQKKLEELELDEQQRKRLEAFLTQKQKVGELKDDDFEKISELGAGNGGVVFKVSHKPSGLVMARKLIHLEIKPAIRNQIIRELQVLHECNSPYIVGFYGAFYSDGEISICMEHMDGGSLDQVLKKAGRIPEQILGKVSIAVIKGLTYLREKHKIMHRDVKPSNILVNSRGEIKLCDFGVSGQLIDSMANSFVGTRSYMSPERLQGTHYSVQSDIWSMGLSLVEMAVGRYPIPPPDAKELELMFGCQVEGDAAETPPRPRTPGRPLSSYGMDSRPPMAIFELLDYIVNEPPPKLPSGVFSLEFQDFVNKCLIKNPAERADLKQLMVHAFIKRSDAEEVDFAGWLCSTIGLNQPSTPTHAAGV

[6] = target: Dual specificity mitogen-activated protein kinase kinase 1 (Homo sapiens) (UniProt Q02750); assay: Inhibition of recombinant full length GST-tagged human MEK1 expressed in baculovirus infected sf9 insect cells at 20 uM measured after 30 to 90 mins by HTRF based Lanthascreen Eu kinase binding assay relative to AZD6244
[7] = Inhibition of GST-tagged MEK1/ERK2 (unknown origin) cascading pathway assessed as reduction in ERK2 phosphorylation incubated for 2 hrs by HTRF assay relative to control; design: species or system Homo sapiens
[8] = Inhibition of BRAF/MEK1 (unknown origin) cascading pathway assessed as reduction in MEK1 phosphorylation incubated for 2 hrs in presence of 100 uM ATP by HTRF assay; design: species or system Homo sapiens
[9] = Inhibition of BRAF/MEK1 (unknown origin) cascading pathway assessed as reduction in MEK1 phosphorylation incubated for 2 hrs in presence of 300 uM ATP by HTRF assay; design: species or system Homo sapiens

Row | inhibition (Homo sapiens [1]) [%] | IC50 (A-375) [µM] | IC50 (HL-60) [µM] | IC50 (A549) [µM] | Structure (SMILES) | IC50 (HEK293) [µM] | inhibition (Sf21 [2]) [%] | also measured
1 | 21.4 | > 100 | > 100 | > 100 | Cc1ccc(S(=O)(=O)Nc2cc(SCC(=O)O)cc3c2[nH]c2ccccc23)cc1 | > 100 | 67.2 | –
2 | 21.8 | – | – | – | CCOC(=O)CSc1cc(NS(=O)(=O)c2ccc(NC(C)=O)cc2)c2[nH]c3ccccc3c2c1 | – | 35.8 | –
3 | 39.2 | – | – | – | CCOC(=O)CSc1cc(NS(=O)(=O)c2ccc(C)cc2)c2[nH]c3ccccc3c2c1 | – | 45.2 | –
4 | 18.2 | – | – | – | CCOC(=O)COc1cc(NS(=O)(=O)c2ccc(NC(C)=O)cc2)c2[nH]c3ccccc3c2c1 | – | 27.4 | –
5 | 27.7 | – | – | – | CC(=O)Nc1ccc(S(=O)(=O)Nc2cc(SCC(=O)O)cc3c2[nH]c2ccccc23)cc1 | – | 44.2 | –
6 | 35.5 | – | – | – | Cc1ccc(S(=O)(=O)Nc2cc(S(=O)(=O)CC(=O)O)cc3c2[nH]c2ccccc23)cc1 | – | 45 | –
7 | 35.6 | 14.7 | 26.3 | 12.8 | Cc1ccc(S(=O)(=O)Nc2cc(SCC(=O)O)c(O)c3c2[nH]c2ccccc23)cc1 | > 100 | 43.7 | –
8 | 21.5 | > 100 | > 100 | > 100 | Cc1ccc(S(=O)(=O)Nc2cc(OCC(=O)O)cc3c2[nH]c2ccccc23)cc1 | > 100 | 65.8 | IC50 [8]: 13.2 µM; IC50 [9]: 12.1 µM
9 | 28.9 | 70.7 | > 100 | 70.7 | CCOC(=O)COc1cc(NS(=O)(=O)c2ccc(C)cc2)c2[nH]c3ccccc3c2c1 | > 100 | 56.6 | –
10 | 27.9 | – | – | – | Cc1ccc(S(=O)(=O)Nc2cc(OCC(N)=O)cc3c2[nH]c2ccccc23)cc1 | – | 41.9 | –

The remaining lines, values behind:

Row | Structure (SMILES) | inhibition (Homo sapiens [1]) [%] | IC50 (A-375) [µM] | IC50 (HL-60) [µM] | IC50 (A549) [µM] | IC50 (HEK293) [µM] | inhibition (Sf21 [2]) [%] | also measured
11 | N#CC(=C(/N)Sc1ccccc1N)/C(C#N)=C(\N)Sc1ccccc1N | 80.9 | 1.1 | – | 32.2 | – | 87.4 | inhibition (Sf21 [3]): 41.7%; inhibition (Homo sapiens [4]): 26.9%
12 | Cc1ccc(S(=O)(=O)Nc2cc(OCc3nc(C)no3)cc3c2[nH]c2ccccc23)cc1 | 37.8 | – | – | – | – | 38.2 | –
13 | Cc1ccc(S(=O)(=O)Nc2cc(OCc3nnc(N)o3)cc3c2[nH]c2ccccc23)cc1 | 21.4 | – | – | – | – | 33 | –
14 | CC(=O)Nc1cccc(S(=O)(=O)Nc2cc(OCc3nnc(C)o3)cc3c2[nH]c2ccccc23)c1 | -10 | – | – | – | – | 29.5 | –
15 | Cc1ccc(S(=O)(=O)Nc2cc(SCC(=O)O)c(O)c3ccccc23)cc1 | 32 | 7.7 | 17.2 | 21.6 | 8.9 | 56.1 | inhibition [5]: 32.1%; inhibition (Sf21 [3]): 4.4%; inhibition (Homo sapiens [4]): 3.9%; inhibition [6]: 90.3%; IC50 [7]: > 160 µM
16 | CC(=O)Nc1ccc(S(=O)(=O)Nc2cc(OCc3nnc(C)o3)cc3c2[nH]c2ccccc23)cc1 | 20.6 | 43.7 | > 100 | > 100 | > 100 | 50.7 | –
17 | COc1cc(/C=C2\C(=O)NN(c3ccc(I)cc3)C2=O)ccc1OC(C)=O | 35 | – | – | – | – | 57 | inhibition [5]: 11.9%; inhibition (Sf21 [3]): 6.3%; inhibition (Homo sapiens [4]): 5.1%; inhibition [6]: 60.1%; IC50 [7]: 63.1 µM
18 | Cc1ccc(S(=O)(=O)Nc2cc(OCc3nnc(C)o3)cc3c2[nH]c2ccccc23)cc1 | 25.8 | – | – | – | – | 48.6 | –
19 | Cc1ccc(S(=O)(=O)Nc2cc(OCc3nnn[nH]3)cc3c2[nH]c2ccccc23)cc1 | 45.1 | – | – | – | – | 46.8 | –
